Measured values reported in patent US8471035B1, “Two-photon absorbing arylamine-endcapped and dialkylfluorene-bridged benzobisthiazole compounds with high oleophilicity” (The United States of America as represented by the …, priority 2011, dated 2013).

Legend:
[1] = Solubility in toluene at room temperature; type: physicochemical
From the text: In addition, these chromophores are found to be even more soluble in aromatic hydrocarbon solvents as indicated by the higher solubilities of AF388-118 (≧29 wt %) and AF388-312 (≧67 wt %) in toluene.

[2] = Solubility in hexane at room temperature (AF-388 series); type: physicochemical; details: for solubility in hexane, % wt/vol. / solubility in hexane, % wt/wt: 24° C.; for amount that remained completely dissolved in hexane for months: ambient conditions

| concentration of toluene solution that remained homogenous [1] [M] | solubility in toluene [1] [wt %] | concentration of toluene solution that solidified at room temperature after 72 hours ([1]; 72 hours) [M] | solubility in hexane, % wt/vol. [2] [% wt/vol.] | solubility in hexane, % wt/wt [2] [% wt/wt] | amount that remained completely dissolved in hexane for months [2] [wt %] | Structure (SMILES) |
| --- | --- | --- | --- | --- | --- | --- |
| 0.24 | ≥ 29 | 0.34 | 0.41 | 0.61 | – | CC(C)CCCC(C)CCC1(CCC(C)CCCC(C)C)c2cc(-c3nc4cc5sc(-c6ccc7c(c6)C(CCC(C)CCCC(C)C)(CCC(C)CCCC(C)C)c6cc(N(c8ccccc8)c8ccccc8)ccc6-7)nc5cc4s3)ccc2-c2ccc(N(c3ccccc3)c3ccccc3)cc21 (stereo not shown) [AF-388-118] |
| 0.34 | ≥ 67 | – | 20.2 | 30.4 | ≥ 30 | CC(C)CCCC(C)CCCC(C)CCC1(CCC(C)CCCC(C)CCCC(C)C)c2cc(-c3nc4cc5sc(-c6ccc7c(c6)C(CCC(C)CCCC(C)CCCC(C)C)(CCC(C)CCCC(C)CCCC(C)C)c6cc(N(c8ccccc8)c8ccccc8)ccc6-7)nc5cc4s3)ccc2-c2ccc(N(c3ccccc3)c3ccccc3)cc21 (stereo not shown) [AF-388-312, 2,6-Bis[7-(diphenylimino)-9,9-bis(3,7,1′-trimethyldodecylfluoren-2-yl)]-benzobisthiazole] |
| – | – | – | 36.3 | 51.3 | ≥ 51 | CC(C)CCCC(C)CCCC(C)CCCC(C)CCC1(CCC(C)CCCC(C)CCCC(C)CCCC(C)C)c2cc(-c3nc4cc5sc(-c6ccc7c(c6)C(CCC(C)CCCC(C)CCCC(C)CCCC(C)C)(CCC(C)CCCC(C)CCCC(C)CCCC(C)C)c6cc(N(c8ccccc8)c8ccccc8)ccc6-7)nc5cc4s3)ccc2-c2ccc(N(c3ccccc3)c3ccccc3)cc21 (stereo not shown) [AF-388-416, 2,6-Bis[7-(diphenylimino)-9,9-bis(3,7,11,15-tetramethylhexadecyl)fluoren-2-yl]-benzobisthiazole] |
